Assay [1] has as its target T1, Angiotensin II receptor (Rattus norvegicus, UniProt P29089+P25095+P35351).
T1 sequence (P29089 whole entry): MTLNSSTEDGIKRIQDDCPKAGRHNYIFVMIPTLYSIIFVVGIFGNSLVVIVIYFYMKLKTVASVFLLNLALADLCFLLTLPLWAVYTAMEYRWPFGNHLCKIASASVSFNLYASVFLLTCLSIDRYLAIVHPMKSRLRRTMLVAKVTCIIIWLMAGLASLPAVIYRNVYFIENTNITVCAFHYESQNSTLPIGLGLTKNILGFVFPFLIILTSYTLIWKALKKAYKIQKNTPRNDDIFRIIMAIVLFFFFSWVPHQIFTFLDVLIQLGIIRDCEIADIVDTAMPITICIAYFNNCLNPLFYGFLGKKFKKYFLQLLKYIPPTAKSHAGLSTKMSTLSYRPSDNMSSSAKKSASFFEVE
T1 sequence (P25095 whole entry): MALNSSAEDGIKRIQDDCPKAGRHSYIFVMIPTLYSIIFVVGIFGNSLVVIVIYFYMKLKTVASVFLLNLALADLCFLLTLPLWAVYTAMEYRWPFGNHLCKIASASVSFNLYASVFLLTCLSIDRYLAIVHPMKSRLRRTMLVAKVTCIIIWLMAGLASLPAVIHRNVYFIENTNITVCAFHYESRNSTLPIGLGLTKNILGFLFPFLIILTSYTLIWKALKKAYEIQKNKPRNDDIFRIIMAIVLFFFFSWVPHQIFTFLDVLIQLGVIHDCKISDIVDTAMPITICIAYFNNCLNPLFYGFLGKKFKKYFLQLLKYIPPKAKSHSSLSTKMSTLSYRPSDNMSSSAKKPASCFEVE
T1 sequence (P35351 whole entry): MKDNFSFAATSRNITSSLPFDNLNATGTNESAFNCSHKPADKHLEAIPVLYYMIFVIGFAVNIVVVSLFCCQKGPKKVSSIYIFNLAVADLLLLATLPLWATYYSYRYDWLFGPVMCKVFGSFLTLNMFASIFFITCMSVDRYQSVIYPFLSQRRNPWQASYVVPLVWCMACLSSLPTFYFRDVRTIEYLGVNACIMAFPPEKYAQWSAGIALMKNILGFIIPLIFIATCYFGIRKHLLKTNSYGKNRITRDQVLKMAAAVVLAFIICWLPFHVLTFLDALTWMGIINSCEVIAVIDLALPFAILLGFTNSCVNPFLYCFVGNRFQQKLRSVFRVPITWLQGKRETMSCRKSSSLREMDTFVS
The assay can be described thus: Inhibition of [125I]- AII binding to rat uterine membrane angiotensin II receptor.

For assay [2], the species on record is Oryctolagus cuniculus. The assay can be described thus: Antagonism of AII-contracted rabbit aortic rings. The assay is classed as functional, organism-based, Aorta. The following applies: for Kb: Oryctolagus cuniculus, Aorta, read-out: pA2 (converted).

“And” between values parts separate entries of the source, which are not always exact repeats. Equal values may be shown once.

As usually defined, the IC50 is the concentration that gives 50% inhibition. The term pA2 denotes the negative logarithm of the molar antagonist concentration that doubles the agonist concentration needed for the same response. A lower pA2 goes with a weaker antagonist.

`CCCCc1nc(Cc2ccc(-c3ccccc3-c3nn[nH]n3)cc2)n(CCCC)n1` registered an IC50 in assay [1] of 16 nM. In addition, the Kb in assay [2] was 3.16 nM.

For the compound `CCCCc1nc(Cc2ccc(-c3ccccc3-c3nnn(C(c4ccccc4)(c4ccccc4)c4ccccc4)n3)cc2)n(CCCC)n1`, the IC50 in assay [1] is 140 nM.

Take `CCCCn1nc(C(F)(F)CCC)nc1Cc1ccc(-c2ccccc2-c2nn[nH]n2)cc1`: the IC50 in assay [1] worked out at 40 nM. Moreover, the Kb in assay [2] was 10 nM.

Consider `CCCCc1nc(C(O)c2ccc(-c3ccccc3-c3nn[nH]n3)cc2)n(CCCC)n1` (stereo not drawn), for which the IC50 in assay [1] worked out at 1800 nM. In addition, in assay [2], the Kb is 251 nM.

Take `CCCCc1nc(CCCC)n(Cc2ccc(-c3ccccc3-c3nn[nH]n3)cc2)n1`: the Kb in assay [2] is 2 nM.

In the case of `CCCCc1nc(C(=O)c2ccc(-c3ccccc3-c3nn[nH]n3)cc2)n(CCCC)n1`, the IC50 in assay [1] came to 32000 nM.

`CCCCn1nc(CCc2ccccc2)nc1Cc1ccc(-c2ccccc2-c2nn[nH]n2)cc1` had an IC50 in assay [1] of 9.5 nM. Moreover, the Kb in assay [2] is 12.6 nM.

For `CCCCc1nc(Cc2ccc(-c3ccccc3-c3nn[nH]n3)cc2)nn1CCCC`, in assay [1], the IC50 was 12000 nM and 6700 nM. For the same compound, in assay [2], the pA2 was 5.3 and the Kb is 10000 nM.

As for `CCCCc1nc(C(C)c2ccc(-c3ccccc3-c3nn[nH]n3)cc2)n(CCCC)n1` (stereo not drawn), the IC50 in assay [1] came to 29000 nM.

In the case of `CCCCc1nc(Cc2ccc(-c3ccccc3C(=O)O)cc2)n(CCCC)n1`, in assay [1], the IC50 came to 240 nM. Further, the Kb in assay [2] is 79.4 nM.

`CCCCc1nc(C(F)(F)c2ccc(-c3ccccc3-c3nn[nH]n3)cc2)n(CCCC)n1` displayed a concentration for half-maximal inhibition (IC50) in assay [1] of 710 nM.

These data come from ChEMBL document CHEMBL1127227, “1H-1,2,4-triazole angiostensin II receptor antagonists: qC-linkedq analogs of SC-50560” (Bioorg Med Chem Lett, 1994).
